For this assay, the target named is Prothrombin (Homo sapiens, UniProt P00734). The assay can be described thus: Inhibition of thrombin.

For orientation: IC50 means the point on the concentration scale where inhibition reaches its midpoint. Higher therefore signals a need for much substance.

Take `O=C(OC1CCNCC1)c1cc2cc(CCl)ccc2oc1=O`: the IC50 is more than 300 µM. The value for `NC(N)=NCCCOC(=O)c1cc2cc(CCl)ccc2oc1=O` was more than 300 µM; that for `O=C(Oc1cccc(Cl)n1)c1cc2cc(CCl)ccc2oc1=O` was 0.87 µM; that for `N=C(N)NCCOC(=O)c1cc2cc(CCl)ccc2oc1=O` was 107 µM. Take `Cc1cccc(OC(=O)c2cc3cc(CCl)ccc3oc2=O)n1`: the IC50 stood at 1.39 µM. This IC50 lies about 77-fold lower than the previous one. Compound `NCCCOC(=O)c1cc2cc(CCl)ccc2oc1=O` returned an IC50 of more than 300 µM.

The compound `Nc1ccc(OC(=O)c2cc3cc(CCl)ccc3oc2=O)cc1` gave an IC50 of 48 µM.

In the case of `N=C(N)Nc1cccc(OC(=O)c2cc3cc(CCl)ccc3oc2=O)c1`, the IC50 is more than 300 µM. The value for `NCCOC(=O)c1cc2cc(CCl)ccc2oc1=O` was 284 µM; that for `O=C(Oc1cncc(Cl)c1)c1cc2cc(CCl)ccc2oc1=O` was more than 300 µM. To `NC1CCC(OC(=O)c2cc3cc(CCl)ccc3oc2=O)CC1` (stereo not drawn) belongs more than 300 µM. `N=C(N)Nc1ccc(OC(=O)c2cc3cc(CCl)ccc3oc2=O)cc1`: the IC50 worked out at 151 µM.

`Nc1cccc(OC(=O)c2cc3cc(CCl)ccc3oc2=O)c1` showed an IC50 of 1.98 µM.

These data come from ChEMBL document CHEMBL1146107, “Investigation of mechanism-based thrombin inhibitors: Implications of a highly conserved water molecule for the binding of coumarins within the S pocket” (Bioorg Med Chem Lett, 2006).
